Data published in patent US20050065166A1, “Substituted pyrimidines” (priority 2001, published 2005).

Row | melting point | SMILES
1 | 48 °C | Cc1nc(SCc2ccc(Cl)cc2)nc2c1CCCC2
2 | 127 °C | Cc1nc([S+]([O-])Cc2ccc(Cl)cc2)nc2c1CCCC2 (stereo not drawn)
3 | 151 °C | Cc1nc(S(=O)(=O)Cc2ccc(Cl)cc2)nc2c1CCCC2
